Source: PubChem BioAssay AID1259407 (Chemical Carcinogenesis Research Information System (CCRIS), 2018)
Calls of active or inactive are those of the source. The rule behind the calls is not given here.

Test system: CCRIS mutagenicity, Ames/micronucleus/aberration tests
Assay: CCRIS mutagenicity studies
[1] = Test System: AMES SALMONELLA TYPHIMURIUM, Strain/Indicator: TA98, Metabolic Activation: NONE, Method: STANDARD PLATE
[2] = Test System: AMES SALMONELLA TYPHIMURIUM, Strain/Indicator: TA98, Metabolic Activation: RAT, LIVER, S-9, AROCLOR 1254, Method: STANDARD PLATE
[3] = Test System: AMES SALMONELLA TYPHIMURIUM, Strain/Indicator: TA100, Metabolic Activation: NONE, Method: STANDARD PLATE
[4] = Test System: AMES SALMONELLA TYPHIMURIUM, Strain/Indicator: TA100, Metabolic Activation: RAT, LIVER, S-9, AROCLOR 1254, Method: STANDARD PLATE

**Q.** `NCc1cccc(CN)c1` was tested. Which mutagenic call (Test System: AMES SALMONELLA TYPHIMURIUM, Strain/Indicator: TA98, Metabolic Activation: HAMSTER, LIVER, S-9, AROCLOR 1254, Method: STANDARD PLATE) did it give?
**A.** inactive; negative

**Q.** And the mutagenic call (Test System: AMES SALMONELLA TYPHIMURIUM, Strain/Indicator: TA98, Metabolic Activation: NONE, Method: PREINCUBATION)?
**A.** inactive; negative

**Q.** And the mutagenic call [1]?
**A.** inactive; negative

**Q.** What about the mutagenic call [2] of the same compound?
**A.** inactive; negative

**Q.** What about the mutagenic call (Test System: AMES SALMONELLA TYPHIMURIUM, Strain/Indicator: TA98, Metabolic Activation: RAT, LIVER, S-9, PCB, Method: PREINCUBATION) of the same compound?
**A.** inactive; negative

**Q.** What about the mutagenic call (Test System: AMES SALMONELLA TYPHIMURIUM, Strain/Indicator: TA98, Metabolic Activation: RAT, LIVER, S-9, PHENOBARBITAL AND BETA-NAPHTHOFLAVONE, Method: PREINCUBATION) of the same compound?
**A.** inactive; negative

**Q.** What about the mutagenic call (Test System: AMES SALMONELLA TYPHIMURIUM, Strain/Indicator: TA100, Metabolic Activation: HAMSTER, LIVER, S-9, AROCLOR 1254, Method: STANDARD PLATE) of the same compound?
**A.** inactive; negative

**Q.** What about the mutagenic call (Test System: AMES SALMONELLA TYPHIMURIUM, Strain/Indicator: TA100, Metabolic Activation: NONE, Method: PREINCUBATION) of the same compound?
**A.** inactive; negative

**Q.** And the mutagenic call [3]?
**A.** inactive; negative

**Q.** What about the mutagenic call [4] of the same compound?
**A.** inactive; negative

**Q.** And the mutagenic call (Test System: AMES SALMONELLA TYPHIMURIUM, Strain/Indicator: TA100, Metabolic Activation: RAT, LIVER, S-9, PCB, Method: PREINCUBATION)?
**A.** inactive; negative

**Q.** What about the mutagenic call (Test System: AMES SALMONELLA TYPHIMURIUM, Strain/Indicator: TA100, Metabolic Activation: RAT, LIVER, S-9, PHENOBARBITAL AND BETA-NAPHTHOFLAVONE, Method: PREINCUBATION) of the same compound?
**A.** inactive; negative

**Q.** What about the mutagenic call (Test System: AMES SALMONELLA TYPHIMURIUM, Strain/Indicator: TA102, Metabolic Activation: NONE, Method: PREINCUBATION) of the same compound?
**A.** inactive; negative

**Q.** And the mutagenic call (Test System: AMES SALMONELLA TYPHIMURIUM, Strain/Indicator: TA102, Metabolic Activation: RAT, LIVER, S-9, SODIUM PHENOBARBITAL AND 5,6-BENZOFLAVONE, Method: PREINCUBATION)?
**A.** inactive; negative

**Q.** What about the mutagenic call (Test System: AMES SALMONELLA TYPHIMURIUM, Strain/Indicator: TA104, Metabolic Activation: NONE, Method: PREINCUBATION) of the same compound?
**A.** inactive; negative

**Q.** And the mutagenic call (Test System: AMES SALMONELLA TYPHIMURIUM, Strain/Indicator: TA104, Metabolic Activation: RAT, LIVER, S-9, SODIUM PHENOBARBITAL AND 5,6-BENZOFLAVONE, Method: PREINCUBATION)?
**A.** inactive; negative

**Q.** What about the mutagenic call (Test System: AMES SALMONELLA TYPHIMURIUM, Strain/Indicator: TA1535, Metabolic Activation: HAMSTER, LIVER, S-9, AROCLOR 1254, Method: STANDARD PLATE) of the same compound?
**A.** inactive; negative

**Q.** And the mutagenic call (Test System: AMES SALMONELLA TYPHIMURIUM, Strain/Indicator: TA1535, Metabolic Activation: NONE, Method: PREINCUBATION)?
**A.** inactive; negative

**Q.** What about the mutagenic call (Test System: AMES SALMONELLA TYPHIMURIUM, Strain/Indicator: TA1535, Metabolic Activation: NONE, Method: STANDARD PLATE) of the same compound?
**A.** inactive; negative

**Q.** And the mutagenic call (Test System: AMES SALMONELLA TYPHIMURIUM, Strain/Indicator: TA1535, Metabolic Activation: RAT, LIVER, S-9, AROCLOR 1254, Method: STANDARD PLATE)?
**A.** inactive; negative

**Q.** What about the mutagenic call (Test System: AMES SALMONELLA TYPHIMURIUM, Strain/Indicator: TA1535, Metabolic Activation: RAT, LIVER, S-9, PHENOBARBITAL AND BETA-NAPHTHOFLAVONE, Method: PREINCUBATION) of the same compound?
**A.** inactive; negative

**Q.** What about the mutagenic call (Test System: AMES SALMONELLA TYPHIMURIUM, Strain/Indicator: TA1537, Metabolic Activation: HAMSTER, LIVER, S-9, AROCLOR 1254, Method: STANDARD PLATE) of the same compound?
**A.** inactive; negative

**Q.** What about the mutagenic call (Test System: AMES SALMONELLA TYPHIMURIUM, Strain/Indicator: TA1537, Metabolic Activation: NONE, Method: PREINCUBATION) of the same compound?
**A.** inactive; negative

**Q.** What about the mutagenic call (Test System: AMES SALMONELLA TYPHIMURIUM, Strain/Indicator: TA1537, Metabolic Activation: NONE, Method: STANDARD PLATE) of the same compound?
**A.** inactive; negative

**Q.** And the mutagenic call (Test System: AMES SALMONELLA TYPHIMURIUM, Strain/Indicator: TA1537, Metabolic Activation: RAT, LIVER, S-9, AROCLOR 1254, Method: STANDARD PLATE)?
**A.** inactive; negative

**Q.** And the mutagenic call (Test System: AMES SALMONELLA TYPHIMURIUM, Strain/Indicator: TA1537, Metabolic Activation: RAT, LIVER, S-9, PHENOBARBITAL AND BETA-NAPHTHOFLAVONE, Method: PREINCUBATION)?
**A.** inactive; negative

**Q.** What about the mutagenic call (Test System: AMES SALMONELLA TYPHIMURIUM, Strain/Indicator: TA1538, Metabolic Activation: HAMSTER, LIVER, S-9, AROCLOR 1254, Method: STANDARD PLATE) of the same compound?
**A.** inactive; negative

**Q.** What about the mutagenic call (Test System: AMES SALMONELLA TYPHIMURIUM, Strain/Indicator: TA1538, Metabolic Activation: NONE, Method: STANDARD PLATE) of the same compound?
**A.** inactive; negative

**Q.** What about the mutagenic call (Test System: AMES SALMONELLA TYPHIMURIUM, Strain/Indicator: TA1538, Metabolic Activation: RAT, LIVER, S-9, AROCLOR 1254, Method: STANDARD PLATE) of the same compound?
**A.** inactive; negative

**Q.** What about the mutagenic call (Test System: E. COLI, Strain/Indicator: WP2UVRA/PKM101, Metabolic Activation: NONE, Method: PREINCUBATION) of the same compound?
**A.** inactive; negative

**Q.** What about the mutagenic call (Test System: E. COLI, Strain/Indicator: WP2UVRA/PKM101, Metabolic Activation: RAT, LIVER, S-9, PHENOBARBITAL AND BETA-NAPHTHOFLAVONE, Method: PREINCUBATION) of the same compound?
**A.** inactive; negative

**Q.** What about the mutagenic call (Test System: E. COLI, Strain/Indicator: WP2UVRA/PKM101, Metabolic Activation: RAT, LIVER, S-9, SODIUM PHENOBARBITAL AND 5,6-BENZOFLAVONE, Method: PREINCUBATION) of the same compound?
**A.** inactive; negative

**Q.** What about the mutagenic call (Test System: E. COLI, Strain/Indicator: WP2UVRA, Metabolic Activation: NONE, Method: PREINCUBATION) of the same compound?
**A.** inactive; negative

**Q.** What about the mutagenic call (Test System: E. COLI, Strain/Indicator: WP2UVRA, Metabolic Activation: RAT, LIVER, S-9, PHENOBARBITAL AND BETA-NAPHTHOFLAVONE, Method: PREINCUBATION) of the same compound?
**A.** inactive; negative

**Q.** What about the mutagenic call (Test System: E. COLI, Strain/Indicator: WP2UVRA, Metabolic Activation: RAT, LIVER, S-9, SODIUM PHENOBARBITAL AND 5,6-BENZOFLAVONE, Method: PREINCUBATION) of the same compound?
**A.** inactive; negative

**Q.** What about the mutagenic call (Test System: MOUSE LYMPHOMA, Strain/Indicator: L5178Y (TK+/TK-), Metabolic Activation: NONE, Method: SUSPENSION/PLATE) of the same compound?
**A.** inactive; negative. reevaluation of results: negative

**Q.** And the mutagenic call (Test System: MOUSE LYMPHOMA, Strain/Indicator: L5178Y (TK+/TK-), Metabolic Activation: RAT, LIVER, S-9, AROCLOR 1254, Method: SUSPENSION/PLATE)?
**A.** inactive; negative. reevaluation of results: negative

**Q.** Which results are given for `Cc1ccc2cc3ccccc3cc2c1`?
**A.** mutagenic call (Test System: AMES SALMONELLA TYPHIMURIUM, Strain/Indicator: TA97, Metabolic Activation: NONE, Method: STANDARD PLATE): inactive; negative; mutagenic call (Test System: AMES SALMONELLA TYPHIMURIUM, Strain/Indicator: TA97, Metabolic Activation: RAT, LIVER, S-9, PCB, Method: STANDARD PLATE): active; positive; mutagenic call [1]: inactive; negative; mutagenic call [2]: inactive; negative; mutagenic call (Test System: AMES SALMONELLA TYPHIMURIUM, Strain/Indicator: TA98, Metabolic Activation: RAT, LIVER, S-9, PCB, Method: STANDARD PLATE): inactive; negative; mutagenic call [3]: inactive; negative; mutagenic call [4]: inactive; negative; mutagenic call (Test System: AMES SALMONELLA TYPHIMURIUM, Strain/Indicator: TA100, Metabolic Activation: RAT, LIVER, S-9, PCB, Method: STANDARD PLATE): inactive; negative
